Results on 1 substance are retold here after publication PMC12796733 (The Journal of Biological Chemistry, 2025).

Where only a bound is given, the exact number is not on record here.

Assay type in all cases: binding
One assay has as its target T1, Shp (Streptococcus pyogenes, UniProt Q06A48).
T1 construct: E. coli BL21(DE3)
The assay can be described thus: isothermal titration calorimetry. The note with it: PBS pH 7.4, 5% DMSO, 25 °C; one set of sites. In general terms: Isothermal titration calorimetry measures the heat released or taken up as one component is titrated into another.

The target of assay [1] is T2, NEAT2 (Streptococcus pyogenes, UniProt Q99YA0).
T2 construct: gene shr; NEAT2 domain, Ala970-Thr1129 of 1275-residue Shr; E. coli BL21(DE3)
T2 sequence (Q99YA0 970-1129): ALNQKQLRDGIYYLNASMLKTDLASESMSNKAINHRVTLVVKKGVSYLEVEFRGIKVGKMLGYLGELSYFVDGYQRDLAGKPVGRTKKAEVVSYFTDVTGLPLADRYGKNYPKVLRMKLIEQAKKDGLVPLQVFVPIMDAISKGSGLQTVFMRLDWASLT
Nature of the assay: isothermal titration calorimetry. The note with it: PBS pH 7.4, 5% DMSO, 25 °C; one set of sites.

The target in assay [2] is T2, NEAT2. Nature of the assay: differential scanning calorimetry. The note with it: PBS; 1 mg/ml protein.
Assay [3] deals with T3, Linker-NEAT1 (Streptococcus pyogenes, UniProt Q99YA0).
T3 construct: gene shr; linker + NEAT1 domain, Ser294-Gly502 of 1275-residue Shr; E. coli BL21(DE3)
T3 sequence (Q99YA0 294-502): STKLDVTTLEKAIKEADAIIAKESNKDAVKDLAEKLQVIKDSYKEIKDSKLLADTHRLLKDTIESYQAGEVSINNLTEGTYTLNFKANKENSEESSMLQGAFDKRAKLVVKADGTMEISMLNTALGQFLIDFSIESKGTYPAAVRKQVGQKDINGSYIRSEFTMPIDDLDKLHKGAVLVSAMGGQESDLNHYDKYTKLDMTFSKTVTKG
Nature of the assay: isothermal titration calorimetry. The conditions noted are these: PBS pH 7.4, 5% DMSO, 25 °C; one set of sites.

Assay [4] addresses T3, Linker-NEAT1. Nature of the assay: differential scanning calorimetry. The note with it: PBS; 1 mg/ml protein. (In general: DSC measures the heat that a sample takes up or gives off during a temperature scan.)

T1 sequence (Q06A48 entry or part of it): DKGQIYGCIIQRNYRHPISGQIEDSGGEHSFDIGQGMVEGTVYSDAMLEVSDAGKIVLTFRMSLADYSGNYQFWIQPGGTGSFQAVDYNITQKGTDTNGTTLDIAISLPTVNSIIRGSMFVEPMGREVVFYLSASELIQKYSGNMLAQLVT

Broadly, the Kd is the concentration at which binding is half-saturated. A high value points to lower affinity. Regarding heme, the equilibrium dissociation constant (Kd) was below 0.00081 µM on Shp, 0.0127 ± 0.0103 µM on NEAT2 [1] and 0.032 ± 0.0234 µM at Linker-NEAT1 [3]. Moreover, the “Tm with heme (apo 58.1 °C)” value on NEAT2 [2] is 64.0 °C. Besides, on Linker-NEAT1 [4], the “Tm with heme (apo 34.6 °C)” value was 41.1 °C.
